Each block holds one compound with its values, some of them ahead of it.
Columns and labels:
[1] = 4EP to 4EPS conversion by cytosolic fractions from tissues of colonized mice; assay type: in vitro ADME, mouse; settings: colon and liver cytosolic fractions of colonized mice, FIG. 11E
Experimental: 4EP to 4EPS conversion was measured by cytosolic fractions from various tissues of colonized mice (FIG. 11E).

Wildtype mice [2] = assay: Open field arena, mice injected with 4EPS; assay type: in vivo, mouse; settings: 30 mg/kg 4EPS potassium salt i.p. daily, 3 to 6 weeks of age, vs saline
Experimental: (§1) Wildtype mice were injected intraperitoneally (i.p.) with saline or 30 mg/kg 4EPS potassium salt daily from 3 to 6 weeks of age and tested for anxiety in the elevated plus maze (FIG. 4A-C), light dark box (FIG. 4D-F), and open field arena (FIG. 4G-I) assays.

wild-type mice = assay: Open field exploration and pre-pulse inhibition assays, wild-type mice injected with 4EPS (Example 1); assay type: in vivo, mouse; settings: 30 mg/kg 4EPS potassium salt i.p. daily from 3 to 6 weeks of age vs saline, n=10/group
Experimental: To measure effects of 4EPS on wild-type mice, the wild-type mice were injected intraperitoneally (i.p.) with saline or 30 mg/kg 4EPS potassium salt daily from 3 to 6 weeks of age. Anxiety-like behavior based on center duration (See FIG. 1B) and locomotor behavior (See […]) were measured in the open field exploration assay. n=10/group. Furthermore, the potentiated startle reflex was measured in the pre-pulse inhibition (PPI) assay, and measurements were taken of startle (Vmax) (FIG. 1C) and PPI % (FIG. 1D). n=10/group.

Wildtype mice [3] = assay: Elevated plus maze, mice injected with 4EPS; assay type: in vivo, mouse; settings: 30 mg/kg 4EPS potassium salt i.p. daily, 3 to 6 weeks of age, vs saline
Experimental: as §1

Wildtype mice [4] = assay: Light dark box, mice injected with 4EPS; assay type: in vivo, mouse; settings: 30 mg/kg 4EPS potassium salt i.p. daily, 3 to 6 weeks of age, vs saline
Experimental: as §1

[5] = target: Sult1A1 (sulfotransferase family 1A member 1) (Homo sapiens, UniProt P50225); assay: R&D SYSTEMS sulfotransferase assay, Sult1A1 modification of 4EP to 4EPS; assay type: biochemical; settings: in vitro, FIG. 11C
Sequence of Sult1A1 (sulfotransferase family 1A member 1) (P50225 whole entry, species assumed): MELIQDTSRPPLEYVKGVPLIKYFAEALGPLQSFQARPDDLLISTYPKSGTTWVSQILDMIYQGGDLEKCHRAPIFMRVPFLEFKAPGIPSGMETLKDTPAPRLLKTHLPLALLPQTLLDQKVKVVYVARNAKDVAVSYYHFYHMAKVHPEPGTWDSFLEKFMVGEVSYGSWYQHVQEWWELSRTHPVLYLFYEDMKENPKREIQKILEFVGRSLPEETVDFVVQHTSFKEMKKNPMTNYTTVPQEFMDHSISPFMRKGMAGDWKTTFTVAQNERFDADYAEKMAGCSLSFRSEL
Experimental: Using R&D SYSTEMS Universal Sulfotransferase Assay Kit™, sulfation of 4-ethylphenol (4EP) or para-cresol (PC) was determined colorimetrically (FIG. 11A). Samples from the assay were pooled and analyzed by liquid chromotography mass spectrometry (LCMS) for the confirmation that 4EPS and PCS are present (FIG. 11B).
An R&D SYSTEMS assay was used to determine whether quercetin and curcumin can inhibit Sult1A1 (sulfotransferase family 1A member 1, an enzyme that catalyzes sulfate conjugation) modification of 4EP to 4EPS (FIG. 11C). […] Accordingly, it is contemplated that quercetin and curcumin in accordance with some embodiments herein can inhibit the production of 4EPS in a subject in need thereof.

- conversion of 4EP to 4EPS [1]: Substantial conversion
Compound: CCc1ccc(O)cc1 [4EP, 4-ethylphenol]

Compound: CCc1ccc(OS(=O)(=O)[O-])cc1.[K+] [4EPS, 4-ethylphenyl sulfate]
- distance moved (open field arena) (Wildtype mice [2]): comparable to saline-injected mice
- total duration in center (open field arena) (Wildtype mice [2]): decreased
- anxiety behaviors (open field center duration, startle, PPI) (wild-type mice): significantly increased anxiety behaviors
- duration in the open (elevated plus maze) (Wildtype mice [3]): decreased
- total terminus duration (elevated plus maze) (Wildtype mice [3]): decreased
- frequency in the light (light dark box) (Wildtype mice [4]): decreased
- total duration in the light (light dark box) (Wildtype mice [4]): decreased

- inhibition of sulfation of 4EP [5]: inhibit
Compound: COc1cc(/C=C/C(=O)CC(=O)/C=C/c2ccc(O)c(OC)c2)ccc1O [curcumin]

Compound: O=c1c(O)c(-c2ccc(O)c(O)c2)oc2cc(O)cc(O)c12 [quercetin]
- inhibition of sulfation of 4EP [5]: inhibit

Reference: patent US11224624B2, “Modulation of microbial synthesis of 4-etylphenol and 4-ethylphenyl sulfate in behavior and disease” (California Institute of Technology, priority 2017, dated 2022)
